Laboratory results as given in patent US8586588B2, “Aryl pyridazinone derivatives and their use as H3 receptor ligands” (Cephalon, Inc., priority 2006, dated 2013).
Counter-ions that a name gives are not always drawn.

Compound | melting point
O=c1c2ccsc2c(-c2ccc(OCCCN3CCCCC3)cc2)nn1Cc1ccc(Cl)cc1 (as salt: HCl) [Example 37, 5-(4-Chloro-benzyl)-7-[4-(3-piperidin-1-yl-propoxy)-phenyl]-5H-thieno[2,3-d]pyridazin-4-one] | 227 to 229 °C
Cc1nn(C)c(=O)cc1-c1ccc(OCCCN2CCC[C@H]2C)cc1 (as salt: HCl) [Example 86, 2,6-Dimethyl-5-{4-[3-((R)-2-methyl-pyrrolidin-1-yl)-propoxy]-phenyl}-2H-pyridazin-3-one] | 176 to 178 °C
Cn1nc(-c2ccc(OCCCN3CCCCC3)cc2)c(-c2ccccc2)cc1=O (as salt: HCl) [Example 48, 2-Methyl-5-phenyl-6-[4-(3-piperidin-1-yl-propoxy)-phenyl]-2H-pyridazin-3-one] | 212 to 214 °C
Cc1cc(-c2ccc(OCCCN3CCC[C@H]3C)cc2)n[nH]c1=O (as salt: HCl) [Example 122, 4-Methyl-6-{4-[3-((R)-2-methyl-pyrrolidin-1-yl)-propoxy]-phenyl}-2H-pyridazin-3-one] | 207 to 208 °C
C[C@@H]1CCCN1CCCOc1ccc2c(c1)CCc1cc(=O)[nH]nc1-2 (as salt: HCl) [Example 209, 8-[3-((R)-2-Methyl-pyrrolidin-1-yl)-propoxy]-5,6-dihydro-2H-benzo[h]cinnolin-3-one] | 289 to 292 °C
COCn1ncc(-c2ccc(OC3CCN(C4CCC4)CC3)cc2C)cc1=O (as salt: HCl) [Example 234, 5-[4-(1-Cyclobutyl-piperidin-4-yloxy)-2-methyl-phenyl]-2-methoxymethyl-2H-pyridazin-3-one] | 119.5 to 123.5 °C
Cn1nc(-c2ccc(OCCCN3CCC[C@H]3CO)cc2)ccc1=O (as salt: HCl) [Example 14, 6-{4-[3-((S)-2-Hydroxymethyl-pyrrolidin-1-yl)-propoxy]-phenyl}-2-methyl-2H-pyridazin-3-one] | 169 °C
C[C@@H]1CCCN1CCCOc1ccc(-c2cc(Cc3ccccc3)c(=O)n(C)n2)cc1 (as salt: HCl) [Example 45, 4-Benzyl-2-methyl-6-{4-[3-((R)-2-methyl-pyrrolidin-1-yl)-propoxy]-phenyl}-2H-pyridazin-3-one] | 232 to 233 °C
CCCn1nc(-c2ccc(OCCCN3CCC[C@H]3C)cc2)c2sccc2c1=O (as salt: HCl) [Example 32, 7-{4-[3-((R)-2-Methyl-pyrrolidin-1-yl)-propoxy]phenyl}-5-propyl-5H-thieno[2,3-d]pyridazin-4-one] | 151 to 153 °C
CC(C)n1nc(-c2ccc(OCCCN3CCC[C@H]3C)cc2)ccc1=O (as salt: tartrate) [Example 5, 2-Isopropyl-6-{4-[3-((R)-2-methyl-pyrrolidin-1-yl)-propoxy]-phenyl}-2H-pyridazin-3-one] | 60 to 64 °C
C[C@@H]1CCCN1CCCOc1ccc(-c2ccc(=O)n(-c3ccccc3)n2)cc1F (as salt: HCl) [Example 81, 6-{3-Fluoro-4-[3-((R)-2-methyl-pyrrolidin-1-yl)-propoxy]-phenyl}-2-phenyl-2H-pyridazin-3-one] | 190 to 191 °C
CC(C)n1nc(-c2ccc(OCCCN3CCCC(C)(C)C3)cc2)c2sccc2c1=O (as salt: HCl) [Example 25, 7-{4-[3-(3,3-Dimethyl-piperidin-1-yl)-propoxy]-phenyl}-5-isopropyl-5H-thieno[2,3-d]pyridazin-4-one] | 100 to 102 °C
COCn1ncc(-c2ccc(OCCCN3CCCCC3)cc2C)cc1=O (as salt: HCl) [Example 232, 2-Methoxymethyl-5-[2-methyl-4-(3-piperidin-1-yl-propoxy)-phenyl]-2H-pyridazin-3-one] | 185 to 197 °C (dec.)
Cc1nn(C)c(=O)cc1-c1ccc(OCCCN2CCCCC2)cc1 (as salt: hydrochloride) [Example 87, 2,6-Dimethyl-5-[4-(3-piperidin-1-yl-propoxy)-phenyl]-2H-pyridazin-3-one] | 210 to 211 °C
O=c1cc(-c2ccc(OCCCN3CCCCC3)cc2)cn[nH]1 (as salt: hydrochloride) [Example 97] | 249 to 250 °C
C[C@@H]1CCCN1CCCOc1ccc(-c2cnn(C)c(=O)c2)cc1 (as salt: hydrochloride) [Example 91, 2-Methyl-5-{4-[3-((R)-2-methyl-pyrrolidin-1-yl)-propoxy]-phenyl}-2H-pyridazin-3-one] | 222 to 223 °C
O=c1ccc(-c2ccc(OC3CCN(C4CCC4)CC3)nc2)nn1-c1ccccn1 (as salt: HCl) [Example 149, 6-[6-(1-Cyclobutyl-piperidin-4-yloxy)-pyridin-3-yl]-2-pyridin-2-yl-2H-pyridazin-3-one] | 261 to 262 °C
CC(C)n1nc(-c2ccc(OCCCN3CCCC3)cc2)c2sccc2c1=O (as salt: HCl) [Example 29, 5-Isopropyl-7-[4-(3-pyrrolidin-1-yl-propoxy)-phenyl]-5H-thieno[2,3-d]-pyridazin-4-one] | 144 °C

Compound | melting point
Cc1cc(-c2ccc(OCCCN3CCCCC3)cc2)n[nH]c1=O (as salt: HCl) [Example 123, 4-Methyl-6-[4-(3-piperidin-1-yl-propoxy)-phenyl]-2H-pyridazin-3-one] | 227 to 229 °C
Cn1ncc2ccc(OCCCN3CCCCC3)cc2c1=O (as salt: HCl) [Example 80, 2-Methyl-7-(3-piperidin-1-yl-propoxy)-2H-phthalazin-1-one] | 251 to 252 °C
CN1N=C(c2ccc(OC3CCN(C4CCC4)CC3)cc2)C2CC2C1=O (stereo not drawn) (as salt: HCl) [Example 252, 5-[4-(1-Cyclobutyl-piperidin-4-yloxy)-phenyl]-3-methyl-3,4-diaza-bicyclo[4.1.0]hept-4-en-2-one] | 243 to 245 °C
CN1N=C(c2ccc(OCCCN3CCCCC3)cc2)C2CCCC2C1=O (stereo not drawn) (as salt: HCl) [Example 59, 2-Methyl-4-[4-(3-piperidin-1-yl-propoxy)-phenyl]-2,4a,5,6,7,7a-hexahydro-cyclopenta[d]pyridazin-1-one] | < 50 °C
CCn1nc(-c2ccc(OCCCN3CCC[C@H]3C)cc2)ccc1=O (as salt: tartrate) [Example 6, 2-Ethyl-6-{4-[3-((R)-2-methyl-pyrrolidin-1-yl)-propoxy]-phenyl}-2H-pyridazin-3-one] | 58 to 62 °C
CC1CC(c2ccc(OC3CCN(C4CCC4)CC3)cc2)=NNC1=O (stereo not drawn) (as salt: HCl) [Example 116, 6-[4-(1-Cyclobutyl-piperidin-4-yloxy)-phenyl]-4-methyl-4,5-dihydro-2H-pyridazin-3-one] | 257 to 259 °C
Cc1nn(-c2ccsc2)c(=O)cc1-c1ccc(OC2CCN(C3CCC3)CC2)cc1 (as salt: HCl) [Example 107, 5-[4-(1-Cyclobutyl-piperidin-4-yloxy)-phenyl]-6-methyl-2-thiophen-3-yl-2H-pyridazin-3-one] | 277 to 279 °C
Cn1nc(-c2ccc(OCCCN3CCCCC3)cc2)c2c(c1=O)CCC2 (as salt: HCl) [Example 57, 2-Methyl-4-[4-(3-piperidin-1-yl-propoxy)-phenyl]-2,5,6,7-tetrahydro-cyclopenta[d]pyridazin-1-one] | 214 to 216 °C
C[C@@H]1CCCN1CCCOc1ccc2c(c1)CCc1cc(=O)n(-c3ccccc3)nc1-2 (as salt: HCl) [Example 76, 8-[3-((R)-2-Methyl-pyrrolidin-1-yl)-propoxy]-2-phenyl-5,6-dihydro-2H-benzo[h]cinnolin-3-one] | 140 to 142 °C
Cn1nc(-c2ccc(OCCCN3CCCCC3)cc2)c2c(c1=O)CCCC2 (as salt: HCl) [Example 61] | 196 to 198 °C
O=c1c2ccccc2c(-c2ccc(OCCCN3CCCCC3)cc2)nn1Cc1ccc(Cl)cc1 (as salt: HCl) [Example 55, 2-(4-Chloro-benzyl)-4-[4-(3-piperidin-1-yl-propoxy)-phenyl]-2H-phthalazin-1-one] | 216 to 217 °C
C[C@@H]1CCCN1CCCOc1ccc(C2=NN(C)C(=O)C3CCCC23)cc1 (stereo partly drawn) (as salt: HCl) [Example 58, 2-Methyl-4-{4-[3-((R)-2-methyl-pyrrolidin-1-yl)-propoxy]-phenyl}-2,4a,5,6,7,7a-hexahydro-cyclopenta[d]pyridazin-1-one] | < 50 °C
CC1CCC(C)N1CCCOc1ccc(-c2nn(C(C)C)c(=O)c3ccsc23)cc1 (stereo not drawn) (as salt: HCl) [Example 23, 7-{4-[3-(2,5-Dimethyl-pyrrolidin-1-yl)-propoxy]-phenyl}-5-isopropyl-5H-thieno[2,3-d]pyridazin-4-one] | 158 to 159 °C
COC[C@@H]1CCCN1CCCOc1ccc(-c2nn(C(C)C)c(=O)c3ccsc23)cc1 (as salt: HCl) [Example 26, 5-Isopropyl-7-{4-[3-((S)-2-methoxymethyl-pyrrolidin-1-yl)propoxy]-phenyl}-5H-thieno[2,3-d]pyridazin-4-one] | 83 °C (dec.)
CCCn1nc(-c2ccc(OCCCN3[C@H](C)CC[C@H]3C)cc2)c2sccc2c1=O (as salt: HCl) [Example 33, 7-{4-[3-((2R,5R)-2,5-Dimethyl-pyrrolidin-1-yl)-propoxy]-phenyl)-5-propyl-5H-thieno[2,3-d]pyridazin-4-one] | 84 °C (dec.)
Cc1n[nH]c(=O)cc1-c1ccc(OCCCN2CCC[C@H]2C)cc1 (as salt: hydrochloride) [Example 88, 6-Methyl-5-{4-[3-((R)-2-methyl-pyrrolidin-1-yl)-propoxy]-phenyl}-2H-pyridazin-3-one] | 115 °C (dec.)
C[C@@H]1CCCN1CCCOc1ccc(C2=NNC(=O)CC2c2ccccn2)cc1 (stereo partly drawn) (as salt: hydrochloride) [Example 111, 6-{4-[3-((R)-2-Methyl-pyrrolidin-1-yl)-propoxy]-phenyl}-5-pyridin-2-yl-4,5-dihydro-2H-pyridazin-3-one] | 133 °C (dec.)
CC(C)n1nc(-c2ccc(OCCCN3CCC(N4CCCC4)CC3)cc2)c2sccc2c1=O (as salt: HCl) [Example 30, 5-Isopropyl-7-{4-[3-(4-pyrrolidin-1-yl-piperidin-1-yl)-propoxy]-phenyl}-5H-thieno[2,3-d]pyridazin-4-one] | 283 °C (dec.)
